Results taken from patent US8617872B2, “Compositions for culturing spirochetes” (priority 2000, dated 2013).

Columns and labels:
Type in all cases: cell-based
Leptospira [1] = assay: Susceptibility testing of Leptospira isolated from a patient with symptoms of rheumatoid arthritis; conditions: for Antibiotic Susceptibility Results, SERUM: Leptospira culture from serum of rheumatoid arthritis patient; for Antibiotic Susceptibility Results, URINE: Leptospira culture from urine of rheumatoid arthritis patient
Description: (§1) This example describes the preparation of a pellet used for antimicrobial susceptibility testing of a culture sample. The procedure begins with a culture (e.g., prepared in the manner described in Example 2), where serum from a patient is inoculated in GSI-1 media and allowed to grow. In order to form pellet, an aliquot of this culture sample is placed in a microcentrifuge tube along with 10% SDS solution, and centrifuged at 14,000 g to disrupt the spirochetes and maximize the number of available eptiopic sites. The disrupted spirochetes were then cultured in an alternative growth medium made up of one part GSI-1 medium, one part 6.5% lactalbumin hydrolysate, one part 2% brain heart infusion, one part 10% pluronic fluid, and one part of the isolated (disrupted) spirochetes. This inoculated alternative growth medium was then allowed to incubate in the closed micro centrifuge tube until a distinctive pellet was observed (typically 7-14 days).
(§2) Following the observation of pellet formation, the tube was vortexed and incubated at 35° C. until a MacFarlane standard of between 8 to 12% turbidity was achieved. MICROSCAN antibiotic susceptibility microtiter plates were then inoculated with (e.g., 110 μl of) inoculum and allowed to incubate at 35° C. for 16-20 hours. The microtiter plates were then scanned for growth and respective sensitivity reaction (both the control well and the growth well).
This Example describes the diagnosis and treatment of a human patient with symptoms of rheumatoid arthritis. In particular, serum and urine samples from this patient were initially cultured on GSI-1 (e.g., as described in Example 2), and screened for the presence of spirochetes (e.g., as described in Example 3). […] These cultures were then used to produce pellets for antimicrobial susceptibility testing (e.g., as described in Example 6). The antimicrobial susceptibility tests were then carried out on each sample (e.g., as described in Example 7) with the antimicrobials listed below in Table 5.

Leptospira [2] = assay: Susceptibility testing of Leptospira isolated from a patient with symptoms of multiple sclerosis; conditions: for Antibiotic Susceptibility Results, SERUM: Leptospira culture from serum of multiple sclerosis patient; for Antibiotic Susceptibility Results, URINE: Leptospira culture from urine of multiple sclerosis patient
Method: This example describes the preparation of a pellet used for antimicrobial susceptibility testing of a culture sample. […] In order to form pellet, an aliquot of this culture sample is placed in a microcentrifuge tube along with 10% SDS solution, and centrifuged at 14,000 g to disrupt the spirochetes and maximize the number of available eptiopic sites. […] This inoculated alternative growth medium was then allowed to incubate in the closed micro centrifuge tube until a distinctive pellet was observed (typically 7-14 days).
MICROSCAN antibiotic susceptibility microtiter plates were then inoculated with (e.g., 110 μl of) inoculum and allowed to incubate at 35° C. for 16-20 hours. The microtiter plates were then scanned for growth and respective sensitivity reaction (both the control well and the growth well).

Treponema isolate = assay: Antimicrobial susceptibility test (MICROSCAN plates) of a patient's Treponema isolate; conditions: Treponema infected patient's isolate; MICROSCAN plates, 35° C., 16-20 hours
Method: For susceptibility testing, the organisms harvested could be assayed using any suitable susceptibility assay (See, Example 7). In some embodiments of the present invention, MICROSCAN antibiotic susceptibility plates were inoculated and incubated. Following incubations, plates were scanned for growth and respective sensitivity reaction. […] For the results to be considered reliable, the no growth of organisms was accepted in the negative control well, while the positive control well had to have sufficient growth to be read. In some embodiments of the present invention, to confirm the presence or absence of growing spirochetes in the growth well, aliquots from the growth well were reinoculated with fresh growth media and after an incubation time (e.g., 7-10 days) the presence of the organisms was confirmed (e.g., by phase contrast microscopy or direct fluorescent antibody staining).
as §1
This example describes an antimicrobial susceptibility test performed for a human patient. The patient had previously been testing using GSI-1 medium (e.g., as described in Example 2) for the presence of any spirochetes. […] This culture sample was then transferred to a microcentrifuge tube, and a pellet for antimicrobial susceptibility testing was prepared as described in Example 6.
as §2, with “well). Table 2 below lists the various antimicrobials tested with this sample and whether growth of the organism was inhibited (susceptible) or whether the growth of the organism was not inhibited (resistant).” for “well).”

E. coli = assay: Antibiotic susceptibility test (MICROSCAN or disc diffusion), control organism E. coli; conditions: total isolates 1
Tatumella = assay: Antibiotic susceptibility test (MICROSCAN or disc diffusion), control organism Tatumella; conditions: total isolates 2
Description: as §1
as §2, with “well). Table 2 below lists the various antimicrobials tested with this sample and whether growth of the organism was inhibited (susceptible) or whether the growth of the organism was not inhibited (resistant).” for “well).”
(§3) This Example describes the results for susceptibility tests that were performed on a large number of patient samples positive for either Borrelia or Leptospira. […] The results presented in Table 3 reveal the varied response of different types of spirochetes to different antibiotics.

Borrelia = assay: Antibiotic susceptibility test (MICROSCAN or disc diffusion) of patient samples positive for Borrelia; conditions: total isolates 519
Description: as §1
as §2, with “well). Table 2 below lists the various antimicrobials tested with this sample and whether growth of the organism was inhibited (susceptible) or whether the growth of the organism was not inhibited (resistant).” for “well).”
as §3

A. lwoffii = assay: Antibiotic susceptibility test (MICROSCAN or disc diffusion), control organism A. lwoffii; conditions: total isolates 1
Leptospira [3] = assay: Antibiotic susceptibility test (MICROSCAN or disc diffusion) of patient samples positive for Leptospira; conditions: total isolates 276
Description: as §1
as §2, with “well). Table 2 below lists the various antimicrobials tested with this sample and whether growth of the organism was inhibited (susceptible) or whether the growth of the organism was not inhibited (resistant).” for “well).”
as §3

Pseudomonas = assay: Antibiotic susceptibility test (MICROSCAN or disc diffusion), control organism Pseudomonas; conditions: total isolates 1
Y. entero gp. = assay: Antibiotic susceptibility test (MICROSCAN or disc diffusion), control organism Y. entero gp.; conditions: total isolates 1

| Molecule | Antibiotic Susceptibility Results, SERUM (Leptospira [1]) | Antibiotic Susceptibility Results, URINE (Leptospira [1]) | Antibiotic Susceptibility Results, SERUM (Leptospira [2]) | Antibiotic Susceptibility Results, URINE (Leptospira [2]) | RESULT (antibiotic susceptibility) (Treponema isolate) | further results |
| --- | --- | --- | --- | --- | --- | --- |
| CO[C@H]1/C=C/O[C@@]2(C)Oc3c(C)c(O)c4c(O)c(c(/C=N/N5CCN(C)CC5)c(O)c4c3C2=O)NC(=O)/C(C)=C\C=C\[C@H](C)[C@H](O)[C@@H](C)[C@@H](O)[C@@H](C)[C@H](OC(C)=O)[C@@H]1C [Rifampin] | Resistant | Resistant | Resistant | Resistant |  |  |
| CC1(C)S[C@@H]2[C@H](NC(=O)[C@H](C(=O)O)c3ccsc3)C(=O)N2[C@H]1C(=O)O [Ticarcillin] |  |  |  |  | Susceptible |  |
| C[C@@H](O)[C@H]1C(=O)N2C(C(=O)O)=C(SCCN=CN)C[C@H]12 [Imipenem] |  |  | Resistant | Resistant |  | Antibiotic Susceptibility Test Results, E. coli (E. coli): 100%; Antibiotic Susceptibility Test Results, Tatumella (Tatumella): 100%; Antibiotic Susceptibility Test Results, Borrelia (Borrelia): 84%; Antibiotic Susceptibility Test Results, A. lwoffii (A. lwoffii): 100%; Antibiotic Susceptibility Test Results, Leptospira (Leptospira [3]): 77%; Antibiotic Susceptibility Test Results, Pseudomonas (Pseudomonas): 100%; Antibiotic Susceptibility Test Results, Y. entero gp. (Y. entero gp.): 100% |
| CC[C@H]1OC(=O)[C@H](C)[C@@H](O[C@H]2C[C@@](C)(OC)[C@@H](O)[C@H](C)O2)[C@H](C)[C@@H](O[C@@H]2O[C@H](C)C[C@H](N(C)C)[C@H]2O)[C@](C)(O)C[C@@H](C)CN(C)[C@H](C)[C@@H](O)[C@]1(C)O [Azithromycin] | Resistant | Resistant | Resistant | Resistant |  |  |
| Piperacillin/Tazobactam | Intermediate | Intermediate | Intermediate | Intermediate |  | Antibiotic Susceptibility Test Results, E. coli (E. coli): 100%; Antibiotic Susceptibility Test Results, Tatumella (Tatumella): 100%; Antibiotic Susceptibility Test Results, Borrelia (Borrelia): 88%; Antibiotic Susceptibility Test Results, Leptospira (Leptospira [3]): 86%; Antibiotic Susceptibility Test Results, Pseudomonas (Pseudomonas): 100%; Antibiotic Susceptibility Test Results, Y. entero gp. (Y. entero gp.): 100% |
| CN(C)[C@@H]1C(O)=C(C(N)=O)C(=O)[C@@]2(O)C(O)=C3C(=O)c4c(O)cccc4[C@@](C)(O)[C@H]3C[C@@H]12 [Tetracycline] | Resistant | Resistant | Resistant | Resistant | Resistant |  |
| Trimethoprim/Sulfamethoxazole |  |  | Susceptible | Susceptible | Resistant |  |
| CCC[C@@H]1C[C@@H](C(=O)N[C@@H]([C@H]2O[C@H](SC)[C@H](O)[C@@H](O)[C@H]2O)[C@H](C)Cl)N(C)C1 [Clindamycin] | Resistant | Resistant | Resistant | Resistant |  |  |
| CC1(C)S[C@@H]2[C@H](NC(=O)[C@H](N)c3ccccc3)C(=O)N2[C@H]1C(=O)O [Ampicillin] | Resistant | Resistant | Resistant | Resistant | Susceptible | Antibiotic Susceptibility Test Results, E. coli (E. coli): 100%; Antibiotic Susceptibility Test Results, Tatumella (Tatumella): 100%; Antibiotic Susceptibility Test Results, Borrelia (Borrelia): 61%; Antibiotic Susceptibility Test Results, Leptospira (Leptospira [3]): 54%; Antibiotic Susceptibility Test Results, Y. entero gp. (Y. entero gp.): 100% |
| CC[C@H]1OC(=O)[C@H](C)[C@@H](O[C@H]2C[C@@](C)(OC)[C@@H](O)[C@H](C)O2)[C@H](C)[C@@H](O[C@@H]2O[C@H](C)C[C@H](N(C)C)[C@H]2O)[C@](C)(O)C[C@@H](C)C(=O)[C@H](C)[C@@H](O)[C@]1(C)O [Erythromycin] | Resistant | Resistant | Resistant | Resistant |  |  |
| CO/N=C(\C(=O)N[C@@H]1C(=O)N2C(C(=O)O)=C(COC(N)=O)CS[C@H]12)c1ccco1 [Cefuroxime] | Resistant | Resistant | Resistant | Resistant |  | Antibiotic Susceptibility Test Results, E. coli (E. coli): 100%; Antibiotic Susceptibility Test Results, Tatumella (Tatumella): 0%; Antibiotic Susceptibility Test Results, Borrelia (Borrelia): 59%; Antibiotic Susceptibility Test Results, Leptospira (Leptospira [3]): 59%; Antibiotic Susceptibility Test Results, Y. entero gp. (Y. entero gp.): 100% |
| Trimethoprim Sulfate | Susceptible | Susceptible |  |  |  |  |
| CC[C@H]1OC(=O)[C@H](C)[C@@H](O[C@H]2C[C@@](C)(OC)[C@@H](O)[C@H](C)O2)[C@H](C)[C@@H](O[C@@H]2O[C@H](C)C[C@H](N(C)C)[C@H]2O)[C@](C)(OC)C[C@@H](C)C(=O)[C@H](C)[C@@H](O)[C@]1(C)O [Clarithromycin] | Resistant | Resistant | Resistant | Resistant |  |  |
| Cc1nnc(SCC2=C(C(=O)O)N3C(=O)[C@@H](NC(=O)Cn4cnnn4)[C@H]3SC2)s1 [Cefazolin] |  |  |  |  | Resistant |  |
| Ampicillin/Sulbactam |  |  |  |  | Susceptible |  |
| CCN[C@@H]1C[C@H](N)[C@@H](O[C@H]2OC(CN)=CC[C@H]2N)[C@H](O)[C@H]1O[C@H]1OC[C@](C)(O)[C@H](NC)[C@H]1O [Netilmicin] |  |  |  |  | Resistant |  |
| Penicillin | Resistant | Resistant |  |  |  |  |
| CC(=O)OCC1=C(C(=O)O)N2C(=O)[C@@H](NC(=O)Cc3cccs3)[C@H]2SC1 [Cephalothin] |  |  |  |  | Susceptible |  |
| CC1(C)S[C@@H]2[C@H](NC(=O)[C@H](NC(=O)N3CCN(S(C)(=O)=O)C3=O)c3ccccc3)C(=O)N2[C@H]1C(=O)O [Mezlocillin] |  |  |  |  | Susceptible |  |
| CO/N=C(\C(=O)N[C@@H]1C(=O)N2C(C(=O)[O-])=C(C[N+]3(C)CCCC3)CS[C@H]12)c1csc(N)n1 [Cefepime] |  |  |  |  |  | Antibiotic Susceptibility Test Results, E. coli (E. coli): 100%; Antibiotic Susceptibility Test Results, Tatumella (Tatumella): 0%; Antibiotic Susceptibility Test Results, Borrelia (Borrelia): 49%; Antibiotic Susceptibility Test Results, A. lwoffii (A. lwoffii): 100%; Antibiotic Susceptibility Test Results, Leptospira (Leptospira [3]): 54%; Antibiotic Susceptibility Test Results, Pseudomonas (Pseudomonas): 100%; Antibiotic Susceptibility Test Results, Y. entero gp. (Y. entero gp.): 100% |
| CCn1cc(C(=O)O)c(=O)c2cc(F)c(N3CCNCC3)cc21 [Norfloxacin] |  | Susceptible |  | Susceptible |  |  |
